From PMC10518717, “High-Throughput Screening and Proteomic Characterization of Compounds Targeting Myeloid-Derived Suppressor Cells” (Molecular & Cellular Proteomics : MCP, 2023)

Tests used:
A594 cells = assay: CellROX-based detection of ROS levels; assay type: cell-based; details: 48 h treatment (compound 2 7.8 μM, N-acetyl-cysteine 300 μM), then 200 μM tert-butyl hydroperoxide 2 h; compared to compound 3 10 μM
Protocol: A594 cells were maintained in Fluorobrite DMEM (Thermo Fisher Scientific) supplemented with GlutaMAX (Thermo Fisher Scientific) and 10% fetal bovine serum (PAN Biotech). Cells were seeded onto a 24-well microplate (Ibidi) and treated with DMSO, 7.8 μM compound 2 (3x EC50), 10 μM compound 3, or 300 μM N-acetyl-cysteine for 48 h. After the treatment, cells were incubated with 200 μM tert-butyl hydroperoxide (Sigma) for 2 h to stimulate ROS production. Then, cells were stained with CellROX deep red (Thermo Fisher Scientific) following the manufacturer’s guidelines. CellROX deep red signal was measured on a Leica DMI 6000 B epifluorescent microscope with a Cy5 filter set. Mean signal intensity per cell was determined from >100 cells per condition from three independent treatments.
For the CellROX assay, three independent treatments were conducted. From each, the mean signal intensity per cell was determined for >100 cells per condition. The statistical significance was calculated by one-way ANOVA followed by a post hoc Tukey’s multiple comparisons test using GraphPad Prism (v.8.3.0).

Arginase = biological target: T1, Arginase (Mus musculus, UniProt Q61176); assay: Arginase activity assay (Arginase Activity Assay Kit) in cell lysates; assay type: biochemical; details: NUP-MDSC lysates; titrated amounts of inhibitor
T1 construct: endogenous in cells; host or cells: mouse NUP cells / NUP-MDSC (lysate)
T1 sequence (Q61176 1-323): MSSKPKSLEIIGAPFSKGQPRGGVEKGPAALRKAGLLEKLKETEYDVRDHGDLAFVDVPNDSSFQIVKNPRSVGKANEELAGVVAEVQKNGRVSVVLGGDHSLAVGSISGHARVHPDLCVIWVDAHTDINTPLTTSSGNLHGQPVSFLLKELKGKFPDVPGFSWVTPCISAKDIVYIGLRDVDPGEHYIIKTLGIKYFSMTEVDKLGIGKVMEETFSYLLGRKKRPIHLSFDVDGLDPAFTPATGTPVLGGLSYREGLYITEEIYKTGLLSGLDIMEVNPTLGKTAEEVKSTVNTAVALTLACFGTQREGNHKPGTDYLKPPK
Protocol: Arginase catalyzes the conversion of arginine to urea and ornithine. The urea produced specifically reacts with the assay substrate to generate a colored product, proportional to the arginase activity. Cells were washed with PBS and lysed for 10 min in 10 mM Tris–HCl, pH7.4 containing protease inhibitors and 0.4% (w/v) Triton X-100. Lysates were centrifuged at 13,000g for 10 min, and supernatant was used for analysis. Arginase activity was analyzed using the Arginase Activity Assay Kit (Sigma, MAK112) according to manufacturer’s protocol. Lysates were untreated or treated with titrated amounts of the arginase inhibitor (3R,4S)-3-amino-1-[(2S)-2-aminopropanoyl]-4-(3-boronopropyl)pyrrolidine-3-carboxylic acid. Absorbance (430 nm) was analyzed in an Infinite M1000 Pro (Tecan) plate reader after 120 min of incubation. Arginase activity was determined as follows: arginase activity = absorbance-blank/(urea standard-H2O Control)∗(1 mM∗reaction volume ∗10³/(incubation time in min∗sample volume (μL))). One unit of arginase is the amount of enzyme that will convert 1.0 μmole of L-arginine to ornithine and urea per minute at pH 9.5 and 37 °C.

NUP-MDSC cell lysate [1] = biological target: T2, NUP-MDSC cell lysate (Mus musculus, UniProt G5E8Z3); assay: Chemoproteomic competition pulldown assay (iCor/iEnt affinity matrix), proteome-wide; assay type: binding; details: protein 2310050C09Rik (G5E8Z3)
T2 construct: endogenous in cells; host or cells: mouse NUP-MDSC (lysate)
T2 sequence (G5E8Z3 1-280): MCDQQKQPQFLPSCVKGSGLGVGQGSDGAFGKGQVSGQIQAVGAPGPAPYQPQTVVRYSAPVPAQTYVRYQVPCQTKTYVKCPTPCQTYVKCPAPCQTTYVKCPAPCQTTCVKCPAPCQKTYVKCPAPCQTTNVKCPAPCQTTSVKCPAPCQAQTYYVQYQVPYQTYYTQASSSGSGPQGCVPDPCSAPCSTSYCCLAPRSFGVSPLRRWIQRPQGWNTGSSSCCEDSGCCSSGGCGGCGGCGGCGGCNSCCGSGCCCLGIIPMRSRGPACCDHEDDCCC
Source text: (§1) Targets of the inhibitors were annotated manually.

NUP-MDSC cell lysate [2] = biological target: T3, NUP-MDSC cell lysate (Mus musculus, UniProt Q8WUR0); assay: as above; assay type: binding; details: protein 1600014C10Rik (Protein C19orf12 homolog)
T3 construct: endogenous in cells; host or cells: mouse NUP-MDSC (lysate)
T3 sequence (Q8WUR0 1-141): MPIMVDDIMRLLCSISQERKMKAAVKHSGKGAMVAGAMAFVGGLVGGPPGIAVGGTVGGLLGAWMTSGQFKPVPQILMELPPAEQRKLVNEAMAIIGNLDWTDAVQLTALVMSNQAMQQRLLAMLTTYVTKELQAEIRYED
Source text: as §1

NUP-MDSC = assay: Global proteome expression profiling of compound-treated NUP-MDSC (TMT LC-MS/MS); assay type: cell-based, mouse; details: 72 h; for log2 FC Moce_300/DMSO: 300 nM
Protocol: After treatments, medium was removed, cells were washed twice with PBS, and the cell pellets were further subjected to proteomic sample preparation.
The cell pellet was reconstituted in 2% SDS in 50 mM Tris–HCl pH 7.5 and lysed by heating to 95 °C for 10 min. One microliter of 100% TFA was added to each sample to hydrolyze DNA, and the pH was subsequently adjusted to 8.5 with 3 M Tris solution. Disulfide bonds were reduced with 10 mM DTT for 45 min at 37 °C, followed by alkylation of cysteines with 55 mM CAA for 30 min at room temperature. Prior to tryptic digestion, the detergent was removed from lysates by SP3 cleanup on an Agilent BRAVO system (Agilent Technologies), following the protocol first described by Hughes et al. ([34]). Briefly, lysate containing 200 μg of protein was mixed with SP3 beads, and proteins were precipitated onto a 50:50 mixture of Sera-Mag Speed Bead types A and B (Thermo Fisher Scientific) in 58% acetonitrile. Beads were washed three times with 80% ethanol in water and once with acetonitrile. Tryptic digest was performed in 100 μl of digestion buffer (2 mM CaCl2 in 25 mM Hepes, pH 8.5) with a 1:50 enzyme-to-protein ratio. Bead-precipitated proteins were digested at 37 °C overnight. On the next day, the supernatant of each sample was transferred to a new well and vacuum dried.
Dried peptides were reconstituted in water and labeled with the respective TMT10plex-labeling reagent as described previously ([35]) with a protein to tandem mass tag (TMT) reagent ratio of 1:2. Labeled samples were pooled, vacuum dried, and reconstituted in 0.1% formic acid (FA) prior to desalting on SepPAC50 columns (waters corp.). Peptides were fractionated using a Dionex Ultra 3000 HPLC system with a Waters XBridge BEH130 C18 3.5 um 2.1 × 250 mm column as described previously ([36]). Ninety-six fractions were collected and pooled to 48. For the full proteome analysis, one fifth of each fraction was transferred to a new 96-well plate and both plates were vacuum dried. For the phosphopeptide analysis, dried peptides were reconstituted in 55 μl 0.1% TFA in 30% ACN, pooled from 48 to 12 fractions, and mixed with 70 μl priming buffer (0.1% TFA, 100% ACN). Phosphopeptides were enriched from each of the 12 fractions using Fe(III)-IMAC-NTA cartridges on the AssayMAP BRAVO (Agilent Technologies) platform as described previously ([36]). Phosphopeptides were eluted with 60 μl 1% ammonia, vacuum dried, and stored at −20 °C prior to LC-MS/MS analysis.
The Fusion Lumos was operated in data-dependent acquisition and positive ionization mode. Samples were measured employing a MS3 method. In brief, full scan MS1 spectra were recorded in the orbitrap (OT) from 360 to 1560 m/z at 60,000 resolution using an automatic gain control (AGC) target value of 4e5 charges and a maximum injection time (maxIT) of 50 ms. Iontrap-MS2 spectra for peptide identification were acquired using higher energy collision dissociation (HCD) fragmentation with 32% normalized collision energy (NCE), an isolation window of 0.6 m/z, and an AGC target value of 1.2e4 charges. To obtain quantitative information on TMT reporter ions, each peptide precursor was fragmented again as for MS2 analysis followed by synchronous selection of the up to eight most intense peptide fragments in the iontrap ([37]) and further fragmentation via HCD using a NCE of 55%. The MS3 scan was recorded in the OT at 50,000 resolution (scan range 100–1000 m/z, isolation window of 1.2 m/z, AGC of 1e5 charges, maxIT of 86 ms). The cycle time was 1.2 s, and the dynamic exclusion lasted for 50 s.
Peptide, protein, and phosphorylation site identification and quantification were performed with MaxQuant software (v. 1.6.3.3, https://www.maxquant.org/) with standard settings for reporter ion MS3 unless described otherwise ([39]). Isotope impurities of the TMT lot were specified to allow MaxQuant the automated correction of TMT intensities. […]

## CC(=O)N[C@@H](CS)C(=O)O [N-acetyl-cysteine]
A594 cells
  CellROX Deep Red fluorescence (amount of ROS in a cell): decreased significantly

## C[C@H](N)C(=O)N1C[C@H](CCCB(O)O)[C@](N)(C(=O)O)C1 [arginase inhibitor, (3R,4S)-3-amino-1-[(2S)-2-aminopropanoyl]-4-(3-boronopropyl)pyrrolidine-3-carboxylic acid]
Arginase
  arginase activity: dose dependently decreased

## Nc1ccccc1NC(=O)c1ccc(CNc2nccc(-c3cccnc3)n2)cc1 [mocetinostat]
NUP-MDSC cell lysate [1]; Mocetinostat 10nM
  Intensity 10nM: 25441000
  LFQ intensity 10nM: 9384100
NUP-MDSC cell lysate [1]; Mocetinostat 30nM
  Intensity 30nM: 13403000
  LFQ intensity 30nM: 6282200
NUP-MDSC cell lysate [1]; Mocetinostat 100nM
  Intensity 100nM: 19942000
  LFQ intensity 100nM: 8726600
NUP-MDSC cell lysate [1]; Mocetinostat 300nM
  Intensity 300nM: 13729000
  LFQ intensity 300nM: 7913100
NUP-MDSC cell lysate [1]; Mocetinostat 1000nM
  Intensity 1000nM: 4275900
  LFQ intensity 1000nM: 0
NUP-MDSC cell lysate [1]; Mocetinostat 3000nM
  Intensity 3000nM: 53551000
  LFQ intensity 3000nM: 32269000
NUP-MDSC cell lysate [1]; Mocetinostat 30000nM
  Intensity 30000nM: 25441000
  LFQ intensity 30000nM: 13756000
NUP-MDSC cell lysate [2]; Mocetinostat 10nM
  Intensity 10nM: 53804000
  LFQ intensity 10nM: 30216000
NUP-MDSC cell lysate [2]; Mocetinostat 30nM
  Intensity 30nM: 64537000
  LFQ intensity 30nM: 37744000
NUP-MDSC cell lysate [2]; Mocetinostat 100nM
  Intensity 100nM: 59266000
  LFQ intensity 100nM: 38158000
NUP-MDSC cell lysate [2]; Mocetinostat 300nM
  Intensity 300nM: 53823000
  LFQ intensity 300nM: 43828000
NUP-MDSC cell lysate [2]; Mocetinostat 1000nM
  Intensity 1000nM: 51502000
  LFQ intensity 1000nM: 40150000
NUP-MDSC cell lysate [2]; Mocetinostat 3000nM
  Intensity 3000nM: 76226000
  LFQ intensity 3000nM: 38853000
NUP-MDSC cell lysate [2]; Mocetinostat 30000nM
  Intensity 30000nM: 39641000
  LFQ intensity 30000nM: 39494000
NUP-MDSC; 30 and 300 nM
  protein expression of Il1a, Il1b, and Il1rn: dose-dependently upregulated
NUP-MDSC; 30 and 300 nM, dose-dependent manner
  protein level of Cxcr3, Ccl9, and Ccr5: increased
NUP-MDSC; protein Cask
  log2 FC Moce_300/DMSO: -0.508
NUP-MDSC; protein Hsf1
  log2 FC Moce_300/DMSO: -0.2561
NUP-MDSC; protein Inpp5j
  log2 FC Moce_300/DMSO: 0.2433
NUP-MDSC; protein Magohb;Magoh
  log2 FC Moce_300/DMSO: -0.03048
